Source: patent US9809604B2, “DGAT1 inhibitor and preparation method and use thereof” (Qingdao Huanghai Pharmaceutical Co., Ltd., priority 2013, dated 2017)
Converted amounts (≈) assume the structure as drawn. Like-named read-outs stand apart in the source and are kept apart here.

Legend:
[1] = target: T1, mouse DGAT1 (Mus musculus, UniProt Q9Z2A7); test: Mouse DGAT1 IC50 enzymatic assay; assay type: biochemical
T1 construct: made in house
T1 sequence (Q9Z2A7 1-498): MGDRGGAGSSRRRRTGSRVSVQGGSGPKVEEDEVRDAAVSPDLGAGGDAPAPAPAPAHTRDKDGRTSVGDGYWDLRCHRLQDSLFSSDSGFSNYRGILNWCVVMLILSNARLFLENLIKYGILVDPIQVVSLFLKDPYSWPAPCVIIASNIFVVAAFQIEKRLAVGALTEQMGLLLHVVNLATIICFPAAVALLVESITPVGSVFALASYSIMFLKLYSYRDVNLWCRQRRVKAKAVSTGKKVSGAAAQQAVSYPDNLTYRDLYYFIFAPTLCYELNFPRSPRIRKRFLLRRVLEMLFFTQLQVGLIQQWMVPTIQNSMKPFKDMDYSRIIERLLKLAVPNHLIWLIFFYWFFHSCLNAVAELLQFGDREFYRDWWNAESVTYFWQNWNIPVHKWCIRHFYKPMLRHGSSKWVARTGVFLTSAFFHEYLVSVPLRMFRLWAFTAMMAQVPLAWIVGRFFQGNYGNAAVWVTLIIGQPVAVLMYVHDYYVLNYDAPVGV
Method: Expressing human DGAT1 enzyme, used diacylglycerol and 14C-labeled acyl-CoA as the substrate, choose PE Company Flashplate testing board to build DGAT1 enzyme reaction system. 14C-labeled acyl-CoA binds to diacylglycerol by covalent bonding after enzymology reaction, and generates the product of 14C-labeled triglyceride. 14C-labeled acyl-CoA substrate is dissolved in reaction solution and 14C-labeled triglyceride product combine with phospholipids of Flashplate plate bottom layer, thus effectively separate labeled substrates and products. The radioactive of 14C-labeled triglyceride which is combined with phospholipid layer is counted, and the potencies of DGAT-1 inhibition for the compounds are determined by calculating the IC50 values.
Mouse DGAT1 activity was determined as follows:
Mouse DGAT1 IC50 determination method: in addition to expression of mouse DGAT1, experiment method with human DGAT1 enzymatic assay is the same.

[2] = Solubility at pH 7.4; assay type: physicochemical; details: pH 7.4, aqueous buffer; read-out: Sol pH 7.4
[3] = Plasma pharmacokinetics in male SD rats; assay type: in vivo; details: rat; for AUC(0-t) / half-life / Vd / bioavailability: male, SD, plasma; for AUC(0-t): read-out: AUC0-1 (ng · n/mL); for half-life: read-out: T1/2 (b) (converted); for Vd: intravenous, 2 mg/kg, read-out: Vdss; for bioavailability: oral, 10 mg/kg
Method: (3) Pharmacokinetics of Test Compounds
The purpose of this study is to determine the plasma pharmacokinetics of male SD rats. Two animals will receive a solution of test article in vehicle by single intravenous bolus via tail vein; the dosage is 2 mg/kg. Blood samples are taken at specified time points (0, 0.0833, 0.25, 0.5, 1, 2, 4, 7, 24 h) after dosing. Another two animals will receive a solution or suspension of TA in vehicle by oral gavage at 10 mg/kg. The schedule for sample collection is 0.5, 1, 2, 3, 4, 6, 24 h after dosing. A LC/MS/MS method is used to measure the concentration of test compound in plasma. Non-compartmental pharmacokinetic analysis is performed on the plasma concentration-time data. PK parameters of calculations are done using Phoenix WinNonlin. 6.2.1 software program.

[4] = tested on: plasma triacylglycerol levels; test: Lipid tolerance test in mice; assay type: in vivo
Method: (1) Lipid Tolerance Test in Mice:
CDI mice (30 g or so) were individually housed in hanging wire cages at 20-25° C. with a 12:12 hour light:dark cycle (Humidity: 40˜70%). The mice had ad libitum access to water. On the day of experimentation, food jars were removed from each cage 16 hours prior to rate received either vehicle or test article based on a randomization plan generated by randomization. After sixty minutes, oral administration (gavage) of corn oil at a dose volume of 6 mL/kg (time=0). Blood samples were obtained from each mouse via tail snip procedure at −0.5, 0.5, 1, 2 and 4 hours. 20 ul of blood sampling will be rapidly collected, and then is centrifuged at 7000 rpm for 10 min to determine plasma triacylglycerol levels. Triglyceride was quantitated using TG ELISA kit. All data will be analyzed using SPSS. p<0.05 is considered to be statistically significant.

[5] = Diet induced obesity in mice; assay type: in vivo; details: DIO mice
Method: (2) Diet Induced Obesity in Mice
Male C57bl/6J mice (6 weeks) were individually housed in hanging wire cages at 20-25° C. with a 12:12 hour light:dark cycle (Humidity: 40˜70%). After one week acclimation, the mice are fed with high fat pelleted diet (D12492i, Research Diets, Inc) and fresh water, ad libitum. Typically; C57BL/6J male mice become obese, and reach 40-50 g after 12-14 weeks of high fat diet treatment.
Animals accept oral gavages acclimation for two weeks. Then next, they are dosed with test articles or vehicle (bid) accordingly for 7 day. Food intake and body weight are recorded every day. Data are graphed by Graph Pad Prism 5.0 and evaluated using SPSS, p<0.05 is considered to be statistically significant.

[6] = target: T2, DGAT1 (Homo sapiens, UniProt O75907); test: Human DGAT1 IC50 enzyme assay (Flashplate, 14C-labeled acyl-CoA); assay type: biochemical; set-up: made in house
T2 sequence (O75907 1-488): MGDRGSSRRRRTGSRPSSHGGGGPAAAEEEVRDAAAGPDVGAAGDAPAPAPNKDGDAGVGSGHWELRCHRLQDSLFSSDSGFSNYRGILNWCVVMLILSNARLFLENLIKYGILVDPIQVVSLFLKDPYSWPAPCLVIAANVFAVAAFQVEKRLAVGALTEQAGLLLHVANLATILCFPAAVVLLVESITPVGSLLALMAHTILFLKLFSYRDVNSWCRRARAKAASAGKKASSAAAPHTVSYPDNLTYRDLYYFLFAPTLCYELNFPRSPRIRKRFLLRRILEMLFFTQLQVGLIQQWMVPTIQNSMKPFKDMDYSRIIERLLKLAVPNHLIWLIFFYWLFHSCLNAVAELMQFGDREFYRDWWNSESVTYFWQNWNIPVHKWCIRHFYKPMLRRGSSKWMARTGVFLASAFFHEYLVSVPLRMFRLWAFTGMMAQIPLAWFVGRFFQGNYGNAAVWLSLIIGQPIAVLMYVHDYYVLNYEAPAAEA
Summary of the method: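 Radiometric Flashplate format: expressed human DGAT1 transfers 14C-acyl from acyl-CoA onto diacylglycerol, and labeled triglyceride binding the plate's phospholipid layer is counted. Potency reported as IC50; Ki calculated as IC50/(1+[S]/Km).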

[7] = target: T2, DGAT1; test: In vitro assay in HEK-293 cells (13C-labeled oleic acid incorporation into TG, LC/MS/MS); assay type: cell-based; set-up: endogenous DGAT1-expressing catalytic ^13C-labeled oleic acid incorporate to TG; endogenous in cells; host or cells: HEK293; details: for EC50: HEK293 cells
Description: In Vitro Assay in HEK-293 Cells:
We treated HEK293 cells with stable isotope ^13C-labeled oleic acid and endogenous DGAT1-expressing catalytic ^13C-labeled oleic acid incorporate to TG. The extraction and separation of cell suspension is to obtain the triglycerides composition. A LC/MS/MS method is used to measure the concentration of ^13C in TG to determine catalytic reaction rate of DGAT1, then determine the compound of DGAT1 inhibition (IC50).

[8] = iv, 1.78-2.06 mg/kg as printed in each cell
[9] = average of first and second, read-out: hDGAT1 IC50(nM) Average
[10] = first determination, read-out: hDGAT1 IC50(nM) First
[11] = second determination, read-out: hDGAT1 IC50(nM) Second

| IC50 [1] [nM] | solubility [2] [µM] | AUC(0-t) [3, 8] [ng·h/mL] | half-life ([3]; po, 8.94-9.33 mg/kg) [h] | Vd [3] [L/kg] | bioavailability [3] [%] | CI [3] [mL/min/kg] | IC50 [6, 9] [nM] | IC50 [6, 10] [nM] | IC50 [6, 11] [nM] | EC50 [7] [nM] | half-life [3, 8] [h] | cell activity ([7]; compared with Pradigastat) | SMILES | Inhibtion % @ 2 h 1 MPK PO [4] [% inh] | 7 days Cumulative Body Weight Change (%) ([5]; 10mpk BID) | 7 days Cumulative Food Intake Change (%) ([5]; 10mpk BID) | body weight ([5]; 30 mpk BID) | food intake ([5]; 30 mpk BID) | 7 days Cumulative Body Weight Change (%) ([5]; 30mpk BID) | 7 days Cumulative Food Intake Change (%) ([5]; 30mpk BID) |
| --- | --- | --- | --- | --- | --- | --- | --- | --- | --- | --- | --- | --- | --- | --- | --- | --- | --- | --- | --- | --- |
| 12.5 | 187 (≈ 83.5 µg/mL) | 2120 | 3.2 | 1.49 | ~100 | 14.4 | 31.3 | 37.7 | 30 | 22.1 | – | – | Cc1cc(N2CCOc3ncnc(N)c3C2=O)cc(C)c1-c1cn(CC(F)(F)F)nc1C [Compound 41, 4-amino-6-(3,5-dimethyl-4-(3-methyl-1-(2,2,2-trifluoroethyl)-1H-pyrazol-4-yl)phenyl)-7,8-dihydropyrimido[5,4-f][1,4]oxazepin-5(6H)-one] | 83 | −3.32 | −16.35 | – | – | – | – |
| 33.6 | 70 (≈ 35.7 µg/mL) | 17700 | 2.93 | 0.54 | 56.8 | 1.96 | 31.7 | 27 | 36.4 | 3.64 | 3.81 | better cell activity | Cc1cc(N2CCOc3ncnc(N)c3C2=O)cc(C)c1-c1ccc2ccn(CC(F)(F)F)c(=O)c2c1 [Compound 105, 4-amino-6-(3,5-dimethyl-4-(1-oxo-2-(2,2,2-trifluoroethyl)-1,2-dihydroisoquinolin-7-yl)phenyl)-7,8-dihydropyrimido[5,4-f][1,4]oxazepin-5-(6H)-one] | 118 | −1.06 | −8.56 | – | – | – | – |
| 30.2 | 22 (≈ 10 µg/mL) | 42900 | 2.33 | 0.15 | 14.9 | 0.70 | 49 | 68.2 | 29.7 | 3.65 | 2.19 | – | O=C(O)C[C@H]1CC[C@H](c2ccc(-c3ccc(Nc4ccc(C(F)(F)F)nc4)cn3)cc2)CC1 [Pradigastat, reference compound] | 34 | – | – | increased slight | increased slight | 1.72 | 5.85 |
